Measured values: the supplement of paper PMC8882468

Experiments:
Assay in all cases: CTG-3D luminescence at 96 h relative to day-0 seeding control (ratio to day 0); higher = more growth / less cytotoxicity; PDxO 3D drug screen, 96 h, CTG-3D normalised to day-0 seeding control.
[1] = tested on: HCI-015 (organoid from a triple-negative breast cancer xenograft)
[2] = tested on: MDA-MB-231
[3] = tested on: HCI-016 (organoid from a triple-negative breast cancer xenograft)
[4] = tested on: HCI-012 (organoid from a breast cancer xenograft)
[5] = tested on: HCI-005.E2 (organoid from a breast cancer xenograft with a HER2-positive history)
[6] = tested on: HCI-017.E2 (organoid from an ER-positive breast cancer xenograft)

Cc1nc(-c2cn3c(n2)-c2ccc(-c4cnn(C(C)(C)C(N)=O)c4)cc2OCC3)n(C(C)C)n1 [taselisib]
CTG-3D luminescence at 96 h
Settings	12.5 pM	0.00025 µM	0.005 µM	0.1 µM	1 µM	10 µM	100 µM	625 fM
[1], days in culture: 172	2.38	1.78	2.27	1.48	1.4	0.489	0.178	3.06
[1], days in culture: 191	2.01	1.36	1.67	0.905	1.12	0.541	0.0414	1.56
[1], days in culture: 218	2.32	1.88	1.69	1.55	0.988	0.617	0.0074	2.08
[3], days in culture: 153	3	1.97	2.05	1.75	1.93	1.68	1.08	2.05
[3], days in culture: 172	2.1	1.26	1.83	1.06	1.32	0.704	0.881	1.53
[3], days in culture: 190	1.8	1.3	1.49	1.25	1.07	0.971	0.254	1.2
[3], days in culture: 199	1.68	1.68	1.69	1.49	1.48	0.98	0.362	1.95
[4], days in culture: 143	2.1	2.32	2.04	1.89	1.21	0.59	0.046	1.82
[4], days in culture: 162	2.56	2.08	1.72	2.19	1.1	0.703	0.0208	2.93
[4], days in culture: 201	2.64	2	1.44	1.62	1.56	0.385	0.0205	1.75
[6], days in culture: 85	3.03	2.91	1.97	0.848	0.668	0.194	0.166	2.38

CTG-3D luminescence at 96 h
Settings	12.5 pM	0.00025 µM	0.005 µM	0.1 µM	1 µM	10 µM	100 µM	625 fM
[2]	4.54	4.45	4.53	4.29	3.9	2.97	1.22	4.58
[5]	1.52	1.77	1.52	1.21	0.401	0.348	0.34	2.12
[6]	1.88	1.78	1.32	0.638	0.448	0.204	0.178	2.06

Cc1cc(Nc2ncnc3ccc(NC4=NC(C)(C)CO4)cc23)ccc1Oc1ccn2ncnc2c1 [tucatinib]
CTG-3D luminescence at 96 h
Settings	12.5 pM	0.00025 µM	0.005 µM	0.1 µM	1 µM	10 µM	100 µM	625 fM
[1], days in culture: 172	2.53	1.9	2.05	1.54	1.91	1.53	0.0569	2.67
[1], days in culture: 191	1.69	1.49	1.75	0.921	1.58	0.759	0.0182	1.67
[1], days in culture: 218	2.15	1.83	1.97	1.85	1.5	1.64	0.0854	1.8
[3], days in culture: 153	2.94	1.99	2.31	1.49	2.19	1.96	0.013	1.94
[3], days in culture: 172	2.3	2.27	1.67	1.43	1.54	0.81	0.0152	1.3
[3], days in culture: 190	1.7	1.19	1.48	1.54	1.57	1.45	0.0124	1.1
[3], days in culture: 199	1.77	1.74	1.65	1.66	1.78	1.38	0.019	1.83
[4], days in culture: 143	2.24	2.35	2.17	2.39	2.43	1.99	0.0289	2.05
[4], days in culture: 162	2.64	2.24	1.87	3.58	2.71	2.41	0.0168	2.94
[4], days in culture: 201	2.71	2.13	1.62	1.73	2.34	1.37	0.053	1.83
[6], days in culture: 85	2.39	3.33	2.72	2.78	3.27	1.71	0.109	2.31

CTG-3D luminescence at 96 h
Settings	12.5 pM	0.00025 µM	0.005 µM	0.1 µM	1 µM	10 µM	100 µM	625 fM
[2]	4.57	4.49	4.6	4.56	4.67	4.64	0.058	4.58
[5]	1.56	1.61	2.08	2	1.47	1.53	0.00612	2.09
[6]	1.74	1.98	2.09	1.95	1.79	1.413	0.0205	1.96

CS(=O)(=O)c1ccc(C(=O)Nc2ccc(Cl)c(-c3ccccn3)c2)c(Cl)c1 [vismodegib]
CTG-3D luminescence at 96 h
Settings	12.5 pM	0.00025 µM	0.005 µM	0.1 µM	1 µM	10 µM	100 µM	625 fM
[1], days in culture: 172	2.23	2	1.97	1.34	1.97	1.25	0.214	3.01
[1], days in culture: 191	2.65	1.16	1.77	1.1	1.7	1.15	0.207	1.54
[1], days in culture: 218	1.6	1.48	1.63	1.61	1.73	1.61	-0.148	2
[3], days in culture: 153	3.24	1.78	2.91	1.54	2.95	1.79	0.626	2.46
[3], days in culture: 172	2.24	1.87	1.95	1.87	2.13	1.47	0.75	2.02
[3], days in culture: 190	2.13	1.28	1.74	1.58	1.72	1.66	0.376	1.7
[3], days in culture: 199	2.04	1.97	2.17	2.07	2.19	2.01	0.655	2.15
[4], days in culture: 143	2.03	2.38	2.4	2.49	2.42	2.55	0.427	1.88
[4], days in culture: 162	2.64	2.72	2.08	2.88	2.4	2.69	0.492	3
[4], days in culture: 201	2.82	2.26	1.72	1.56	2.33	1.8	0.943	1.59
[6], days in culture: 85	2.49	2.32	2.96	2.5	2.32	1.76	0.842	2.14

CTG-3D luminescence at 96 h
Settings	12.5 pM	0.00025 µM	0.005 µM	0.1 µM	1 µM	10 µM	100 µM	625 fM
[2]	4.58	4.44	4.54	4.53	4.66	4.73	4	4.62
[5]	1.47	1.38	1.47	1.57	1.45	1.3	0.318	1.47
[6]	1.53	1.93	2.01	1.8	1.65	1.67	0.824	1.88
